Entries after “also recorded” stand apart in the source; their conditions may differ. Residues, ends and D or L forms follow the SMILES beside them. No end group written: not given here. *: point of attachment. Cbz = O=C(OCc1ccccc1)*; CH2F = FC*
Assays:
[1] = tested on: hippocampal neurons; assay: Toxicity of transduced peptides to neurons in primary hippocampal cultures (NeuN immunostaining, quantitative image analysis); type: cell-based; conditions: for NeuN-immunoreactive (neuronal) population: 10 μM peptide
Method: (§1) Hippocampal or cortical neurons derived from 17-day old rat embryos were plated in modified minimum essential media (MEM-PAK) supplemented with 5% horse serum. Three days later, the cultures were treated with 10 μM cytosine arabinoside (AraC). Twenty-four h later the cells were treated with the peptide conjugates and incubated for an additional 24 or 48 h. Cells were incubated in the presence of 50 μM of the general caspase inhibitor BOC-Asp(Ome)-FMK (BAF) for 30 min prior to addition of peptides or with an equivalent volume of dimethylsulfoxide (DMSO) and then maintained in the presence of the same concentration of the inhibitor for the duration of the experiment. In all experiments involving Aβ, a 1 mM Aβ42 stock solution was used that had been incubated at 37° C. for 48 h and then stored at 4° C. to allow for the formation of Aβ fibrils. Aβ42 was purchased from AnaSpec (San Jose, Calif.).
(§2) Peptides were synthesized and purified at the Stanford University Protein and Nucleic Acid (PAN) Facility. All peptide stocks were solubilized in water at 1 or 10 mM concentration. […] A control peptide used was a fusion of the human immunodeficiency virus-1 TAT protein (HIV-TAT) delivery peptide sequence (Hileman et al., FEBS Lett. 415:145-154 (1997) and the first helix of the p75 receptor intracellular domain.
Hippocampal cultures were fixed in 4% paraformaldehyde in 1× phosphate-buffered saline (PBS) for 20 min at room temperature (RT). Cells were then rinsed in 1× PBS and then washed once in 1× Tris-buffered saline (TBS) followed by blocking in 10% donkey serum (Jackson ImmunoResearch Labs, West Grove, Pa.) with 0.1% Triton X-100 in 1×TBS for 1 h at RT. Cultures were incubated overnight in the presence of rabbit anti-GFAP (Sigma, St. Louis) at 1:800 dilution and mouse anti-NeuN (Chemicon, Temecula, Calif.) at 1:100 at 4° C. Negative controls were incubated in 2 mg/ml rabbit and mouse preinimune IgGs (Sigma, St. Louis). All primary antibodies were diluted in 1×TBS containing 10% donkey serum. Cultures were washed for 90 min in 4 changes of 1×TBS and incubated in the presence of donkey anti-rabbit IgG conjugated to Cy3 and donkey anti-mouse IgG conjugated to FITC (Jackson ImmunoResearch Laboratories, Inc., West Grove, Pa.), at 1:250 and 1:400, respectively, in 1×TBS containing 1% donkey serum for 1 h at RT. Cells were washed for 90 min in 4 changes of 1×TBS and mounted in VectaShield-DAPI mounting medium (Vector Laboratories, Burlingame, Calif.). Images were acquired using Nikon Eclipse-800 microscope and Optronics MagnaFire camera and software, and analyzed using Compix Simple PCI software. The total surface area corresponding to red and green fluorescence in each confocal image was determined by image analysis using Simple PCI software (Compix, Inc., Philadelphia).
(§3) To investigate whether this was due to a greater sensitivity of neurons than glial cells to DP-APPC31-induced death, 3-day-old rat hippocampal cultures were exposed to increasing concentrations of DP-APPC31 or control DP peptide and fixed 48 h after transduction. The fixed cultures were then immunostained with antibodies specific for GFAP (red) and NeuN (green). A quantitative assessment of the total area of red and green fluorescence present in low-magnification confocal images of representative fields obtained from three independent experiments was performed using a digital image analysis system (SimplePCl, Compix, Inc, Philadelphia).
APLP1C31 induces death in primary hippocampal cultures. […] If this event occurs in vivo, APLP1 would have the potential to generate a pro-apoptotic C-terminal peptide homologous to APPC31. To deterinine whether the peptide generated by caspase cleavage of APLP1 is toxic, a fusion of APLP1C31 to the Antennapedia delivery peptide (DP-APLP1C31) was generated and assayed in protein transduction experiments. […]

[2] = tested on: glial cells; assay: Toxicity of transduced peptides to glial cells in primary hippocampal cultures (GFAP immunostaining, quantitative image analysis); type: cell-based, rat
Method: as §1
(§4) Peptides were synthesized and purified at the Stanford University Protein and Nucleic Acid (PAN) Facility. All peptide stocks were solubilized in water at 1 or 10 mM concentration. […]
Hippocampal cultures were fixed in 4% paraformaldehyde in 1× phosphate-buffered saline (PBS) for 20 min at room temperature (RT). […] Images were acquired using Nikon Eclipse-800 microscope and Optronics MagnaFire camera and software, and analyzed using Compix Simple PCI software. The total surface area corresponding to red and green fluorescence in each confocal image was determined by image analysis using Simple PCI software (Compix, Inc., Philadelphia).
as §3, with “The fixed cultures were then immunostained with antibodies specific for GFAP (red) and NeuN (green).” left out, “Philadelphia). […]” for “Philadelphia).”

[3] = tested on: primary hippocampal cultures; assay: Viability of primary hippocampal cultures by trypan blue exclusion; type: cell-based, rat
Method: as §1, §4
(§5) Aβ exacerbates the sensitivity of hippocampal cultures to C31 toxicity. […] Thirty-six hours later, the cultures were evaluated by the LIVE/DEAD assay. […] Cells were stained with Hoechst 33342 and scored for nuclear condensation.

[4] = tested on: N2a neuroblastoma cells; assay: Annexin V-FITC staining of transfected N2a cells; type: cell-based, mouse; conditions: for relative risk (RR) of annexin V-FITC staining with expression / annexin V-positive among construct-positive cells: expression by transfection; for annexin V-positive among construct-positive cells: no tamoxifen or staurosporine, 24 h
Method: Mouse N2a neuroblastoma cells were grown at 37° C. and 5% CO2 in […] Dulbecco's modified Eagle's medium and 45% OptiMEM I (Life Technologies) supplemented with 10% fetal bovine serum and 2 mM glutamine. Plasmid constructs were introduced into the N2a cells with the LipofectAMINE plus transfection reagent (Life Technologies) according to the manufacturer's instructions.
N2a cells were plated on glass cover slips treated with polylysine and were transfected as described above. At 24 h after transfection, cells were directly stained with annexin V-FITC for apoptosis in tissue culture media, according to the manufacturer's instructions (annexin V-FITC Apoptosis Detection Kit; Calbiochem, La Jolla, Calif.). After being stained with annexin V-FITC, cells were fixed for 20 min in 4% parafoimaldehyde in phosphate-buffered saline and permeabilized in 0.5% Triton X-100 in phosphate-buffered saline for 5 min. After being blocked in 5% BSA in phosphate-buffered saline, the cells were incubated for 1 h at room temperature with CT15, diluted 1:2,000. In parallel, cells were stained with propidium iodide after annexin V staining and paraformaldehyde fixation but without permeabilization to verify membrane integrity; the combination of amnexin V staining and membrane integrity indicated apoptosis without secondary necrosis. The primary antibody was detected with Texas Red®-conjugated secondary antibody against rabbit (Molecular Probes, Eugene, Oreg.). Negative controls, which included preimmune serum and cells transfected with pcDNA3 (mock transfection), were assayed in parallel using the protocol described above. The cells were analyzed by confocal nmcroscopy using a BioRad MRC-1024 system. Cells in five random fields were counted for each slide, in duplicate for each condition. The number of cells positive and negative for APP or C31 and apoptosis (annexin V-FITC) were determined, and relative risk was calculated (RR=p1/p2)=concordant staining [(+/+) times (−/−)] divided by discordant staining [(+/−) times (−/+)].
Double-labeling of APP and annexin V in N2a cells after transfection was performed. N2a cells were transfected with either APP or C31 followed by staining with annexin V-FITC to visualize apoptotic cells. Transfected cells were immunolocalized with CT15 followed by Texas Red conjugated secondary antibody to visualize APP or C31 expression. When expressed in N2a cells, C31 but not APP is associated with apoptosis. A high proportion of C31 transfected cells are positive for amnexin V-FITC (green outline of the cell; RR=6.3), whereas in APP-expressing cells, annexin V-FITC staining is sparse (RR=0.77). In control cells transfected with pcDNA3 (mock transfection; control), there is no staining with annexin V-FITC and essentially no staining of endogenous APP at this antibody dilution. Images are representations of four different fields of view of each of three separate experiments.

[5] = tested on: 293T human embryonic kidney cells; assay: Toxicity of C31 peptide to 293T cells; type: cell-based
Method: as §2
(§6) Primary hippocampal or cortical neuronal culturesor 293 cells transduced with the different penetratin-peptide conjugates were assayed for viability at 24 and 48 h after transduction by trypan blue exclusion or by conversion of 3-[4,5-Dimethylthiazol-2-yl]-2,5-diphenyltetrazolium bromide; Thiazolyl blue (MTT, Sigma, St. Louis) to formazan by dehydrogenase enzymes (MTT, Sigma, St. Louis) and by the LIVE/DEAD assay (Molecular Probes, Eugene, Oreg.), which distinguishes live cells by the presence of intracellular esterase activity, which results in the conversion of the non-fluorescent cell permeant calcein-AM to the intensely green fluorescent calcein. Calcein is retained witlin live cells. Ethidium homodimer-1 (EthD-1) enters cells with damaged membranes and becomes intensely fluorescent when bonding to nucleic acids. EthD-1 is excluded by the intact plasma membrane of live cells. Media were removed and replaced by 4 μM EthD-1 and 2 μM calcein in PBS. […]

[6] = tested on: PTB domain of Fe65; assay: Binding of C31 to the PTB domain of Fe65
Text: Binding assays can be used to confirm this observation with respect to the C31 peptide derived from APLP1.

[7] = tested on: primary hippocampal cultures; assay: Hoechst 33342 staining of condensed, fragmented (apoptotic) nuclei in primary hippocampal cultures; type: cell-based, rat; conditions: for percentage of apoptotic nuclei (Hoechst 33342): cultures preincubated with 5 μM Aβ for 24 h, then exposed to C-C31 or not
Method: as §1, §6, §5

[8] = tested on: primary hippocampal cultures; assay: Viability of primary hippocampal cultures by MTT assay; type: cell-based, rat; conditions: increasing concentrations
Method: as §1
as §2, with “domain. […]” for “domain.”

[9] = tested on: primary hippocampal cultures; assay: LIVE/DEAD assay (calcein / EthD-1) of primary hippocampal cultures; type: cell-based, rat; conditions: for toxicity of Aβ alone: 36 hours
Method: as §1, §6, §5

[10] = synthetic peptide delivered into primary cultures

## AAVTPEERHLSKMQQNGYENPTYKFFEQMQN [C31]
[1]; primary culture, read-out: LC50 for hippocampal neurons
  CC50: 1000 to 2000 nM
[2]; rat, astrocytes (glial cells in primary hippocampal cultures)
  CC50: 10 to 25 µM
[3]; preincubation with 5 μM Aβ for 24 h, then transduction in absence of Aβ, read-out: LC50 in primary cultures pre-exposed to sublethal fibrillar Aβ
  CC50: < 500 nM
[4]
  relative risk (RR) of annexin V-FITC staining with expression: 6.3
  annexin V-positive among construct-positive cells: 76±10%
[5]
  CC50: 50 to 100 µM
[6]
  binding to the PTB domain of Fe65: binds to the PTB domain of Fe65

## CC[C@H](C)[C@H](NC(=O)[C@H](CCCCN)NC(=O)[C@@H](NC(=O)[C@H](CCC(N)=O)NC(=O)[C@H](CCCNC(=N)N)NC(=O)[C@@H](N)CSSC[C@H](N)C(=O)N[C@@H](C)C(=O)N[C@@H](C)C(=O)N[C@H](C(=O)N[C@H](C(=O)N1CCC[C@H]1C(=O)N[C@@H](CCC(=O)O)C(=O)N[C@@H](CCC(=O)O)C(=O)N[C@@H](CCCNC(=N)N)C(=O)N[C@@H](Cc1c[nH]cn1)C(=O)N[C@@H](CC(C)C)C(=O)N[C@@H](CO)C(=O)N[C@@H](CCCCN)C(=O)N[C@@H](CCSC)C(=O)N[C@@H](CCC(N)=O)C(=O)N[C@@H](CCC(N)=O)C(=O)N[C@@H](CC(N)=O)C(=O)NCC(=O)N[C@@H](Cc1ccc(O)cc1)C(=O)N[C@@H](CCC(=O)O)C(=O)N[C@@H](CC(N)=O)C(=O)N1CCC[C@H]1C(=O)N[C@H](C(=O)N[C@@H](Cc1ccc(O)cc1)C(=O)N[C@@H](CCCCN)C(=O)N[C@@H](Cc1ccccc1)C(=O)N[C@@H](Cc1ccccc1)C(=O)N[C@@H](CCC(=O)O)C(=O)N[C@@H](CCC(N)=O)C(=O)N[C@@H](CCSC)C(=O)N[C@@H](CCC(N)=O)C(=O)N[C@@H](CC(N)=O)C(=O)O)[C@@H](C)O)[C@@H](C)O)C(C)C)[C@@H](C)CC)C(=O)N[C@@H](Cc1c[nH]c2ccccc12)C(=O)N[C@@H](Cc1ccccc1)C(=O)N[C@@H](CCC(N)=O)C(=O)N[C@@H](CC(N)=O)C(=O)N[C@@H](CCCNC(=N)N)C(=O)N[C@@H](CCCNC(=N)N)C(=O)N[C@@H](CCSC)C(=O)N[C@@H](CCCCN)C(=O)N[C@@H](Cc1c[nH]c2ccccc12)C(=O)N[C@@H](CCCCN)C(=O)N[C@@H](CCCCN)C(=O)O [DP-APPC31]
[1]
  NeuN-immunoreactive (neuronal) population: significantly reduced; also recorded: markedly reduced
[1]; listed as C-C31
  NeuN-immunoreactive (neuronal) population: marked decrease
[2]; 10 μM peptide, 48 h after transduction
  glial (GFAP) population: significantly reduced
[7]
  percentage of apoptotic nuclei (Hoechst 33342): 72%
[7]; increasing concentrations, 30 hours after transduction
  percentage of condensed, fragmented nuclei, concentration dependence: increase in the percentage of condensed, fragmented nuclei
[8]
  number of viable cells converting MTT into formazan: reduced the number of viable cells
[9]; 10 μM, 24 h after transduction
  viability of hippocampal neuronal cultures: marked decrease in viability

## APP: wild-type human APP695 expressed from pcDNA3 by transfection
[4]
  relative risk (RR) of annexin V-FITC staining with expression: 0.77
  annexin V-positive among construct-positive cells: 13±5%

## PMLTLEEQQLRELQRHGYENPTYRFLEERP [APLP1-C31]
[1]; [10]
  LD50 for neurons: around 3 micromolar
[2]; [10]
  LD50 for glial cells: 35 to 40 µM

## COC(=O)C[C@H](NC(=O)OC(C)(C)C)C(=O)CF [BAF, BOC-Asp(Ome)-FMK, reference compound]
[1]; BAF 50 μM
  effect of caspase inhibitor on DP-APLP1C31 toxicity: delayed DP-APLP1C31 toxicity
[1]; BAF 50 μM, DP-APPC31 10 μM
  effect of caspase inhibitor on DP-APPC31 toxicity: delayed the toxicity; also recorded: blocked the toxicity

## Aβ: Aβ42 purchased from AnaSpec, stock incubated to allow formation of Aβ fibrils [reference compound]
[7]
  percentage of apoptotic nuclei (Hoechst 33342): ~9%
[3]; 5 μM Aβ
  dead cells with Aβ alone: did not increase the number of dead cells
[9]; 50 μM
  toxicity of Aβ alone: decrease the number of viable cells in the culture substantially
[9]; concentrations up to 25 μM
  toxicity of Aβ alone: No measurable toxicity

## CC(C)[C@H](NC(=O)OCc1ccccc1)C(=O)N[C@@H](C)C(=O)N[C@@H](CC(=O)O)C(=O)CF [zVAD.fmk, benzoxycarbonyl-Val-Ala-Asp-CH2F, reference compound] (Cbz-Val-Ala-Asp-CH2F)
[4]; zVAD.fmk treatment
  effect on annexin V staining of C31 transfected cells: decreased annexin V staining of C31 transfected cells to control levels
